ChEMBL document CHEMBL1154349, “Syntheses of aminoalcohol-derived macrocycles leading to a small-molecule binder to and inhibitor of Sonic Hedgehog” (Bioorg Med Chem Lett, 2009)
The source made the active and inactive calls. The calls are words filed in the database; no cut-off is given here.

Columns and labels:
[1] = target: Sonic hedgehog protein (Homo sapiens, UniProt Q15465); assay: Binding affinity to recombinant Shh N-terminal peptide by surface plasma resonance
[2] = Cytotoxicity against mouse Shh Light2 cells by cell titer glo assay; type: cell-based; settings: shh light ii
[3] = target: Sonic hedgehog protein (Mus musculus) (UniProt Q62226); assay: Inhibition of SHH in mouse Ptch deffective MEF cells after 30 hrs by Gli-responsive beta-galactosidse reporter gene assay; type: cell-based
[4] = target: Sonic hedgehog protein (Mus musculus) (UniProt Q62226); assay: Inhibition of SHH in mouse Shh Light2 cells after 30 hrs by GLI-responsive bright glo luciferase reporter gene assay relative to 6 uM cyclopamine; type: functional, cell-based; settings: Shh Light II
[5] = target: Sonic hedgehog protein (Mus musculus) (UniProt Q62226); assay: Inhibition of SHH in mouse Shh Light2 cells after 30 hrs by GLI-responsive bright glo luciferase reporter gene assay at 15.6 uM relative to 6 uM cyclopamine; type: functional, cell-based; settings: Shh Light II
[6] = target: Sonic hedgehog protein (Mus musculus, UniProt Q62226); assay: (§1) Inhibition of SHH in mouse Shh Light2 cells after 30 hrs by GLI-responsive bright glo luciferase reporter gene assay; type: functional, cell-based, Shh Light II
[7] = target: Sonic hedgehog protein (Mus musculus) (UniProt Q62226); assay: Inhibition of SHH in mouse Shh Light2 cells after 30 hrs by GLI-responsive bright glo luciferase reporter gene assay relative to cyclopamine; type: functional, cell-based; settings: Shh Light II
[8] = target: Sonic hedgehog protein (Mus musculus) (UniProt Q62226); assay: as §1; type: functional, cell-based; settings: Shh Light II

Chain of Sonic hedgehog protein (Homo sapiens, UniProt Q15465) (Q15465 24-197 limits assumed): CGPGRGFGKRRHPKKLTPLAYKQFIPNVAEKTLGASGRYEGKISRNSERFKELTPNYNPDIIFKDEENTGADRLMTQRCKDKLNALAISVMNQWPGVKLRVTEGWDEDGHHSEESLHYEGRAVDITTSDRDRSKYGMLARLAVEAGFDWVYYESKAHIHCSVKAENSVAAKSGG
Chain of Sonic hedgehog protein (Mus musculus, UniProt Q62226) (Q62226 25-198 limits assumed): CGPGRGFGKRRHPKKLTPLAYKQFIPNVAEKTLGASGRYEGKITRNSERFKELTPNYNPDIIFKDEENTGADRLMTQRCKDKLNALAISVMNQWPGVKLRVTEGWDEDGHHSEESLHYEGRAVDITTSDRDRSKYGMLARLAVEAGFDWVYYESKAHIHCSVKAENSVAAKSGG

| Activity [1] | inhibition [3] | Structure (SMILES) | Activity [2] | further results |
| --- | --- | --- | --- | --- |
| Dose-dependent effect | inactive | O=C(C[C@@H]1C/C=C/CCCC(=O)O[C@@H](c2ccccc2)CNC1=O)NCc1ccc(Cl)cc1 | Non-toxic |  |
| Dose-dependent effect | inactive | O=C(C[C@@H]1C/C=C/CCCCC(=O)OCCNC1=O)NCc1ccc(Cl)cc1 | Non-toxic | ECmax [4]: 70% |
| Dose-dependent effect | inactive | O=C(C[C@H]1C/C=C/CCC(=O)O[C@@H](c2ccccc2)CNC1=O)NCc1ccc(Cl)cc1 | Non-toxic |  |
| Dose-dependent effect | inactive | O=C(C[C@H]1C/C=C/CCC(=O)OCCNC1=O)NCc1ccc(Cl)cc1 | Non-toxic | ECmax [4]: 50% |
|  | inactive | O=C(C[C@H]1C/C=C/CCCC(=O)OCCNC1=O)NCc1ccc(Cl)cc1 | Non-toxic |  |
|  | inactive | O=C(C[C@H]1C/C=C/CCCCC(=O)O[C@H](c2ccccc2)CNC1=O)NCc1ccc(Cl)cc1 | Non-toxic | inhibition [1]: inactive |
| Dose-dependent effect | inactive | O=C(C[C@@H]1C/C=C/CCCC(=O)O[C@H](c2ccccc2)CNC1=O)NCc1ccc(Cl)cc1 | Non-toxic | ECmax [4]: 93% |
| Dose-dependent effect | inactive | O=C(C[C@@H]1C/C=C/CCCCC(=O)O[C@H](c2ccccc2)CNC1=O)NCc1ccc(Cl)cc1 | Non-toxic |  |
|  | inactive | O=C(C[C@H]1C/C=C/CCCCC(=O)O[C@@H](c2ccccc2)CNC1=O)NCc1ccc(Cl)cc1 | Non-toxic |  |
| Dose-dependent effect | inactive | O=C(C[C@@H]1C/C=C/CCC(=O)O[C@@H](c2ccccc2)CNC1=O)NCc1ccc(Cl)cc1 | > 15.6 µM | ECmax [5]: 57% |
|  | inactive | O=C(C[C@H]1C/C=C/CCCCC(=O)OCCNC1=O)NCc1ccc(Cl)cc1 | Non-toxic |  |
| Dose-dependent effect | inactive | O=C(C[C@@H]1C/C=C/CCC(=O)O[C@H](c2ccccc2)CNC1=O)NCc1ccc(Cl)cc1 [ROBOTNIKININ] | Non-toxic | EC50 [6]: 4 µM; ECmax [4]: 91% |
| Dose-dependent effect | inactive | O=C(C[C@H]1C/C=C/CCCC(=O)O[C@@H](c2ccccc2)CNC1=O)NCc1ccc(Cl)cc1 | Non-toxic | Kd [1]: 3.1 µM |
|  | inactive | O=C(C[C@H]1C/C=C/CCCC(=O)O[C@H](c2ccccc2)CNC1=O)NCc1ccc(Cl)cc1 | Non-toxic | ECmax [7]: 71% |
| Dose-dependent effect | inactive | O=C(C[C@H]1C/C=C/CCC(=O)O[C@H](c2ccccc2)CNC1=O)NCc1ccc(Cl)cc1 | Non-toxic | ECmax [8]: 62.5 µM |
| Dose-dependent effect | inactive | O=C(C[C@@H]1C/C=C/CCC(=O)OCCNC1=O)NCc1ccc(Cl)cc1 | Non-toxic | ECmax [4]: 55% |
| Dose-dependent effect | inactive | O=C(C[C@@H]1C/C=C/CCCCC(=O)O[C@@H](c2ccccc2)CNC1=O)NCc1ccc(Cl)cc1 | > 31 µM |  |
| Dose-dependent effect | inactive | O=C(C[C@@H]1C/C=C/CCCC(=O)OCCNC1=O)NCc1ccc(Cl)cc1 | Non-toxic |  |
